Source: US11839210B1, “Plant growth promoter with strigolactones regulation activities” (King Abdullah University of Science and Technology, priority 2017, dated 2023)

Assays:
Striga hermonthica seeds = test: Striga hermonthica seed germination bioassay with rice root exudates; type: in vivo
Protocol: For the analysis of SLs, one week-old seedlings were further transferred into 50 ml falcon tube (three seedlings per tube) containing Hoagland nutrient solution with K2HPO4·2H2O (+Pi) and grown in the growth cabinet for one week. The rice seedlings were then subjected to phosphate deficiency for another one week period. On the day of root exudates collection, rice seedlings were first treated with 5 μM zaxinone for 6 h and then root exudates and root tissues were collected from each tube for LC-MS/MS analysis and Striga bioassays.
The Striga seed germination bioassay was carried out in the following manner After 10 days of pre-conditioning (30° C. under moisture for 10 days), Striga seeds were supplied with 50 μl of SL collected from root exudates of zaxinone treated and non-treated wild-types and zas mutants. After SLs application, Striga seeds were incubated at 30° C. in the dark for two days. Germinated (seeds with radicle) and non-germinated seeds were counted under a binocular to calculate germination rates (%).

[1] = system: wild-type and zas mutant rice seedlings; test: Rescue of zas mutant root phenotype, hydroponically grown rice seedlings; type: in vivo, Oryza sativa Nipponbare; details: hydroponic, 2.5 μM zaxinone
Protocol: For rescue of zas mutant phenotype with zaxinone, one week-old seedlings were grown hydroponically in Hoagland nutrient solution containing K2HPO4·2H2O (+Pi) for 3 weeks with 2.5 μM zaxinone treatment or Mock treatment (0.1% acetone). The solution was changed every other day, adding the chemical at each renewal. Plants grown without zaxinone served as the controls and phenotypic data were recorded.
Phenotypic characteristics of hydroponically grown Nipponbare wild-type and zas mutant rice plants were examined to determine the effect of zaxinone treatment on plant growth. Data are means±SD [(FIG. 16A), n=12; (FIG. 16B), n=6; (FIG. 16C), n=4; (FIG. 16D), n=8; Con=Control, Zax=Zaxinone]. Different letters denote significant difference following a One-way ANOVA test (P<0.05).

CC(=O)/C=C/C=C(C)/C=C/C1=C(C)C[C@@H](O)CC1(C)C [zaxinone, 3-OH-β-apo-13-carotenone]
decrease in germination rate of S. hermonthica seeds vs mock-treated culture medium (Striga hermonthica seeds; culture medium from zaxinone treated WT rice): approximately 50%
decreases in germination rates of S. hermonthica seeds vs mock (Striga hermonthica seeds; culture medium from zaxinone treated WT rice and zas mutant rice (both together)): 40-50%
decrease in germination rate of S. hermonthica seeds vs mock-treated culture medium (Striga hermonthica seeds; culture medium from zaxinone treated zas mutant rice): approximately 40%
germination of Striga seeds exposed to root exudates (Striga hermonthica seeds; exudates from zaxinone treated zas mutant (zas/Zax), phosphate-starved, 5 μM): decreased to levels near the germination rates for the wild-type control
germinating activity of root exudates on Striga hermonthica seeds (Striga hermonthica seeds; zas exudates, normal phosphorus (+Pi), 5 μM zaxinone, exudates diluted 9 times): decreased germinating activity of zas exudates (zas/Zax) to a level below that of the wild-type sample
lowering of Striga seed germinating activity of root exudates (Striga hermonthica seeds; zas mutant exudates, phosphate-starved, 5 μM zaxinone, 6 h): 40%
root growth ([1]; wild type plants): increase in root growth
crown root length ([1]; zas mutant, three weeks, untreated 7-9 cm): 10-11 cm
root biomass ([1]; zas mutant, three weeks, untreated 12-22 mg DW): 28-35 mg DW
crown root number ([1]; zas mutant, three weeks, untreated 20-23): 27-32
